Assay results as given in ChEMBL document CHEMBL3045195, “Comparison of the activity of non-steroidal ecdysone agonists between dipteran and lepidopteran insects, using cell-based EcR reporter assays” (Pest Manag Sci, 2010).
Active and inactive are the calls of the source. The calls are words filed in the database; no cut-off is given here.

Key:
[1] = target: T1, Ecdysone receptor (Drosophila melanogaster) (UniProt P34021+P20153); assay: Agonist activity at ecdysone receptor in Drosophila melanogaster S2 cells at 100 uM after 24 hr by luciferase reporter gene assay relative to 20-hydroxyecdysone; format: cell-based
Ecdysone receptor [2] = target: T2, Ecdysone receptor (Drosophila melanogaster, UniProt P20153+P34021); assay: Agonist activity at ecdysone receptor in Drosophila melanogaster S2 cells after 24 hr by luciferase reporter gene assay; format: cell-based
T2 sequence (P34021 whole entry): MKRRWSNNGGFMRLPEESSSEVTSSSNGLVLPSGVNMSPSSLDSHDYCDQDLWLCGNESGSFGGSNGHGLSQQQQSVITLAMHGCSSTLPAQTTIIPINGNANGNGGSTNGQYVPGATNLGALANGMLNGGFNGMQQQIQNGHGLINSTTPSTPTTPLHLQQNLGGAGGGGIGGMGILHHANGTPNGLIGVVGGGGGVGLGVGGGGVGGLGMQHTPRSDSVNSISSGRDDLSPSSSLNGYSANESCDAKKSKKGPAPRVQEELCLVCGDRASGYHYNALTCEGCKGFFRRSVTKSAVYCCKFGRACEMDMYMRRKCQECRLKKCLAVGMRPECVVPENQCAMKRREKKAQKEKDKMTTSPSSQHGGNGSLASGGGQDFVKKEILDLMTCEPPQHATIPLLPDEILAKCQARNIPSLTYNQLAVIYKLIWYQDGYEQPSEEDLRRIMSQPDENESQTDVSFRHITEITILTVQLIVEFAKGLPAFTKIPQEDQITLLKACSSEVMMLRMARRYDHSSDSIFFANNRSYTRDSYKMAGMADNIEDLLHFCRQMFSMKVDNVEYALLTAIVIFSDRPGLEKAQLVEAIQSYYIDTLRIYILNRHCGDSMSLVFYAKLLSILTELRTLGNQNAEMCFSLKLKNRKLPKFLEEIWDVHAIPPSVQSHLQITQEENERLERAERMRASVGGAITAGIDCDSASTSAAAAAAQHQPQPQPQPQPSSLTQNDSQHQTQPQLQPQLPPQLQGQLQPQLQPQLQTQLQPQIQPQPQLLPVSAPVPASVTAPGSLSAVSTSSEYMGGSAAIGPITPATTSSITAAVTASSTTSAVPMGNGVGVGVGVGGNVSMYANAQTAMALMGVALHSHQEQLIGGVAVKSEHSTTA
T2 sequence (P20153 whole entry): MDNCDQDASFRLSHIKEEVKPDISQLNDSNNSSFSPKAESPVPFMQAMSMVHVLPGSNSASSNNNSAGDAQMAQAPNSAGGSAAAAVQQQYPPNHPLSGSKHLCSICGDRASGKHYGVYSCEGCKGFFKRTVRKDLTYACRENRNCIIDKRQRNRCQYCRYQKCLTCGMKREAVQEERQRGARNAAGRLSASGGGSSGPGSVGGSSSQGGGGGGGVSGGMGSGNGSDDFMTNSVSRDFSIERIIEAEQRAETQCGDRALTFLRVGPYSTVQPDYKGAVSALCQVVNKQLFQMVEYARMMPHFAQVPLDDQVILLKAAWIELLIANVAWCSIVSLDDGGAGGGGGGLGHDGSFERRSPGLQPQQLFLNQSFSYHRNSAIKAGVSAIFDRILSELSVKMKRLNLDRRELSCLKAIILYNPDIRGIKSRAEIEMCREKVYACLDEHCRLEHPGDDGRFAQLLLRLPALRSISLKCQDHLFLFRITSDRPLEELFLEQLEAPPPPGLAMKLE

[3] = target: Ecdysone receptor (Aedes aegypti) (UniProt P49880+Q9GSG8); assay: Agonist activity at Aedes aegypti ecdysone receptor expressed in mammalian cells by reporter gene assay relative to control; format: cell-based
Ecdysone receptor [4] = target: T3, Ecdysone receptor (Aedes aegypti, UniProt P49880+Q9GSG8); assay: Agonist activity at Aedes aegypti ecdysone receptor expressed in mammalian cells by reporter gene assay; format: cell-based
T3 sequence (P49880 whole entry): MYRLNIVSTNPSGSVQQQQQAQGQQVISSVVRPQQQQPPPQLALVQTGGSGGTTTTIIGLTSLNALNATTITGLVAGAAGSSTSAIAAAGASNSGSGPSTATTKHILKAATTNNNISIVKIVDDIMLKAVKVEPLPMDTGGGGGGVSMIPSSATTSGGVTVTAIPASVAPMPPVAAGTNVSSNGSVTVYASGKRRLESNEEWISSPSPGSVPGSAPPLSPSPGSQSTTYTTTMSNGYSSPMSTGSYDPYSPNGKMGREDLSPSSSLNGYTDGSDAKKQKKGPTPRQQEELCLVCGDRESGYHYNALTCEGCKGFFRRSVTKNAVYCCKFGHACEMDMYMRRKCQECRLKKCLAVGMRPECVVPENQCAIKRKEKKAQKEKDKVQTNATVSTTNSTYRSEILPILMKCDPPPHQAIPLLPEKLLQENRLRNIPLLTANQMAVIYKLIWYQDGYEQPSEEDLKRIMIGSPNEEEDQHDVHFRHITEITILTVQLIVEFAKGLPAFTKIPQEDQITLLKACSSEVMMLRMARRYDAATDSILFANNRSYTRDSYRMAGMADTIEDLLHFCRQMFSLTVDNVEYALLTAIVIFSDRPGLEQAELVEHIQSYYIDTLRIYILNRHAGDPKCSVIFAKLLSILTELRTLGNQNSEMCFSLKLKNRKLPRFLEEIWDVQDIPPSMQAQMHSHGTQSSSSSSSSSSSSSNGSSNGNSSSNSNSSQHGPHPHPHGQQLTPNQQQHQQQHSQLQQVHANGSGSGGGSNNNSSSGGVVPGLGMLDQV
T3 sequence (Q9GSG8 whole entry): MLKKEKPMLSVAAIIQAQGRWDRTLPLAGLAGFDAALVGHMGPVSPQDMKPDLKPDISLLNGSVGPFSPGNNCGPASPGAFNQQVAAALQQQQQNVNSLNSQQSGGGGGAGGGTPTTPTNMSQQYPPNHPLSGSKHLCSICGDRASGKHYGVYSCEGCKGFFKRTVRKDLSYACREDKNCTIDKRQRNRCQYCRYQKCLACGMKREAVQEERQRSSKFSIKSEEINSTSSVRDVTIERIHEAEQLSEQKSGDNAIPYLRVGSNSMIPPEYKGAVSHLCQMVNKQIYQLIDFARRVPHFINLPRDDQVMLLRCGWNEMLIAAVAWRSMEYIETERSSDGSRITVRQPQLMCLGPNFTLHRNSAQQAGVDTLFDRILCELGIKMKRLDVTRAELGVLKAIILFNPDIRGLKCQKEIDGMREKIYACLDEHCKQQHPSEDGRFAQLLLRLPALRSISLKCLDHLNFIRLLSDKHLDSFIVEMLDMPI

[5] = target: T1, Ecdysone receptor (Drosophila melanogaster); assay: Agonist activity at ecdysone receptor in Drosophila melanogaster S2 cells at 10 uM after 24 hr by luciferase reporter gene assay relative to 20-hydroxyecdysone; format: cell-based
[6] = target: T4, Ecdysone receptor (Bombyx mori) (UniProt P49881); assay: (§1) Agonist activity at ecdysone receptor in Bombyx mori Bm5 cells after 24 hr by luciferase reporter gene assay; format: cell-based
T4 sequence (whole entry): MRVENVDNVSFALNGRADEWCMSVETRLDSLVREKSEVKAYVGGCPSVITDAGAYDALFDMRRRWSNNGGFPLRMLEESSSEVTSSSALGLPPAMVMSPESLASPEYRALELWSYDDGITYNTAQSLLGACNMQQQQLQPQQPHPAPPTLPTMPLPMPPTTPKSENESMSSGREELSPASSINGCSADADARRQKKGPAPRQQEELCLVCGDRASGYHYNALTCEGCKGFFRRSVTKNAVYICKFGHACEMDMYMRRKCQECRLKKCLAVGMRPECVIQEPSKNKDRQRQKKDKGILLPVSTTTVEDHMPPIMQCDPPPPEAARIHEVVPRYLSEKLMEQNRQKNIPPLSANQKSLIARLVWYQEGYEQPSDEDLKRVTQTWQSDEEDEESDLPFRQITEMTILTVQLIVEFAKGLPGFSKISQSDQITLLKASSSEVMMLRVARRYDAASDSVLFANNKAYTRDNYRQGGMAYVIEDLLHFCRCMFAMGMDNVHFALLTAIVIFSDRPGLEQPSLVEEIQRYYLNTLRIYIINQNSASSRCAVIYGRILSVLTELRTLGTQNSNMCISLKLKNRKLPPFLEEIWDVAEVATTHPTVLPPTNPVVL

[7] = Cytotoxicity against Drosophila melanogaster S2 cells at 10 to 100 uM after 24 hr by CellTiter assay; format: cell-based; conditions: s2, 24 h
Ecdysone receptor [8] = target: T2, Ecdysone receptor; assay: Agonist activity at ecdysone receptor in Drosophila melanogaster B2 cells assessed as reduction in cell density
Ecdysone receptor [9] = target: T5, Ecdysone receptor (Bombyx mori, UniProt P49881); assay: as §1; format: cell-based
T5 sequence (P49881 whole entry): T4 sequence (whole entry)

[10] = target: T1, Ecdysone receptor (Drosophila melanogaster); assay: Agonist activity at ecdysone receptor in Drosophila melanogaster S2 cells treated with ouabain for 24 hr prior to compound addition measured after 24 hr by luciferase reporter gene assay; format: cell-based
[11] = target: T1, Ecdysone receptor (Drosophila melanogaster); assay: Agonist activity at ecdysone receptor in Drosophila melanogaster S2 cells after 24 hr by luciferase reporter gene assay in presence of ouabain; format: cell-based
[12] = target: T1, Ecdysone receptor (Drosophila melanogaster); assay: Agonist activity at ecdysone receptor in Drosophila melanogaster S2 cells at 50 uM after 24 hr by luciferase reporter gene assay relative to 20-hydroxyecdysone; format: cell-based
[13] = target: T1, Ecdysone receptor (Drosophila melanogaster); assay: Agonist activity at ecdysone receptor in Drosophila melanogaster Kc cells at 100 uM after 24 hr by luciferase reporter gene assay relative to 20-hydroxyecdysone
Ecdysone receptor [14] = target: T2, Ecdysone receptor; assay: (§2) Agonist activity at ecdysone receptor in Drosophila melanogaster Kc cells after 24 hr by luciferase reporter gene assay
[15] = target: T1, Ecdysone receptor (Drosophila melanogaster); assay: Agonist activity at ecdysone receptor in Drosophila melanogaster S2 cells at 1.33 uM after 24 hr by luciferase reporter gene assay relative to 20-hydroxyecdysone; format: cell-based
[16] = target: T1, Ecdysone receptor (Drosophila melanogaster); assay: Agonist activity at ecdysone receptor in Drosophila melanogaster Kc cells at 10 uM after 24 hr by luciferase reporter gene assay relative to 20-hydroxyecdysone
[17] = target: T1, Ecdysone receptor (Drosophila melanogaster); assay: as §2
[18] = target: T1, Ecdysone receptor (Drosophila melanogaster); assay: Agonist activity at ecdysone receptor in Drosophila melanogaster S2 cells at 5 uM after 24 hr by luciferase reporter gene assay relative to 20-hydroxyecdysone; format: cell-based

CC1CC(Nc2ccc(F)cc2)c2cc(F)ccc2N1C(=O)c1ccc(Cl)cc1 (configuration not stated)
Efficacy [1]: 12%
EC50 (Ecdysone receptor [2]): > 100 µM
Efficacy [3]: 70%
EC50 (Ecdysone receptor [4]): 646 nM

Cc1ccc(NC2CC(C)N(C(=O)c3ccc(Cl)cc3)c3ccc(C)cc32)cc1 (configuration not stated)
Efficacy [5]: 9%
EC50 (Ecdysone receptor [2]): > 10 µM
Efficacy [3]: 39%
EC50 (Ecdysone receptor [4]): 2140 nM
pEC50 [6]: inactive

CCc1ccc(C(=O)NN(C(=O)c2cc(C)cc(C)c2)C(C)(C)C)cc1 [TEBUFENOZIDE]
Efficacy [5]: 52%
EC50 (Ecdysone receptor [2]): 6.61 µM
Activity [7]: Non-toxic
EC50 (Ecdysone receptor [8]): 525 nM
EC50 (Ecdysone receptor [9]): 1.23 nM

COc1cccc(C(=O)NN(C(=O)c2cc(C)cc(C)c2)C(C)(C)C)c1C [METHOXYFENOZIDE]
Efficacy [1]: 66%
EC50 (Ecdysone receptor [2]): 16.6 µM
Activity [10]: Active
Activity [7]: Non-toxic
EC50 (Ecdysone receptor [9]): 6.03 nM
Activity [11]: Active

CC(C)(C)N(NC(=O)c1ccc(Cl)cc1)C(=O)c1ccccc1 [HALOFENOZIDE]
Efficacy [1]: 57%
EC50 (Ecdysone receptor [2]): 7.76 µM
Activity [7]: Non-toxic
EC50 (Ecdysone receptor [9]): 87.1 nM

CCOc1ccccc1C(=O)N(NC(=O)c1ccc(CC)cc1)C(C)(C)C
Efficacy [12]: 2%
EC50 (Ecdysone receptor [2]): > 50.1 µM

CC(C)(C)N(NC(=O)c1c(F)cccc1F)C(=O)c1ccccc1Cl
Efficacy [1]: 23%
Efficacy [13]: 35%
EC50 (Ecdysone receptor [14]): > 100 µM

Cc1cc(C)cc(C(=O)C2(NC(=O)c3ccc4c(c3C)CCCO4)CCCCC2)c1
EC50 (Ecdysone receptor [2]): > 1.32 µM
Efficacy [15]: 37%

CC(C)(C)N(NC(=O)c1ccccc1)C(=O)c1ccccc1 [RH-5849]
Efficacy [1]: 62%
EC50 (Ecdysone receptor [2]): 37.2 µM
Activity [7]: Non-toxic
EC50 (Ecdysone receptor [8]): 1820 nM
EC50 (Ecdysone receptor [9]): 427 nM

CC(=O)c1ccc(C(=O)NN(C(=O)c2ccccc2Cl)C(C)(C)C)cc1
Efficacy [1]: 7%
Efficacy [16]: 3%
EC50 (Ecdysone receptor [14]): > 100 µM

Cc1ccc(NC2CC(C)N(C(=O)c3ccc(C)cc3)c3ccc(C)cc32)cc1 (configuration not stated)
Efficacy [5]: 11%
EC50 (Ecdysone receptor [2]): > 10 µM
Efficacy [3]: 26%
EC50 (Ecdysone receptor [4]): 5010 nM
pEC50 [6]: inactive

Cc1ccc(C(=O)NN(C(=O)c2ccccc2Cl)C(C)(C)C)c(C)c1
Efficacy [1]: 43%
EC50 (Ecdysone receptor [2]): 129 µM
Efficacy [13]: 29%
pEC50 [17]: inactive
EC50 (Ecdysone receptor [9]): 162 nM

CC(C)(C)N(NC(=O)c1ccc(Br)cc1)C(=O)c1ccccc1Cl
Efficacy [18]: 68%
EC50 (Ecdysone receptor [2]): 2.82 µM
Efficacy [16]: 56%
EC50 (Ecdysone receptor [14]): 6.92 µM
EC50 (Ecdysone receptor [9]): 33.9 nM

CC(C)(C)N(NC(=O)c1ccc(I)cc1)C(=O)c1ccccc1Cl
Efficacy [18]: 53%
EC50 (Ecdysone receptor [2]): 7.08 µM
EC50 (Ecdysone receptor [9]): 7.59 nM
